Assay results reported in BindingDB's records for doi:10.1021/jm00100a015 (Centre De Neurochimie Du Cnrs, 1992).

Target: GABA-A receptor (Rattus norvegicus)
Assay: Affinity for gamma-aminobutyric-acid A receptor measured by its ability to displace [3H]gabazine antagonist from rat brain preparations.

| SMILES | IC50 |
| --- | --- |
| Cc1cc(-c2ccccc2)nn(CCCC(=O)O)c1=N | 800 nM |
| N=c1ccc(-c2ccsc2)nn1Cc1cc(=O)[nH]o1 | 88 nM |
